Measurements published in ChEMBL document CHEMBL1152847, “Molecular modeling and inhibition of phospholipase A2 by polyhydroxy phenolic compounds” (Eur J Med Chem, 2009).
Active and inactive are the calls of the source. The calls are words filed in the database; no cut-off is given here.

Assays:
Crotalus adamanteus [1] = test: Activity of Crotalus adamanteus venom PLA2 assessed as 1-hexadecanoyl-2-(1-pyrenedecanoyl)-sn-glycero-3-phosphoglycerol hydrolysis at 0.15 uM
Crotalus adamanteus [2] = test: Activity of Crotalus adamanteus venom PLA2 assessed as 1-hexadecanoyl-2-(1-pyrenedecanoyl)-sn-glycero-3-phosphoglycerol hydrolysis at 0.30 uM
[3] = Inhibition of Crotalus adamanteus venom PLA2 assessed as effect on 1-hexadecanoyl-2-(1-pyrenedecanoyl)-sn-glycero-3-phosphoglycerol hydrolysis at 0.15 uM
[4] = Inhibition of Crotalus adamanteus venom PLA2 assessed as effect on 1-hexadecanoyl-2-(1-pyrenedecanoyl)-sn-glycero-3-phosphoglycerol hydrolysis at 0.30 uM
Crotalus adamanteus [5] = test: Inhibition of Crotalus adamanteus venom PLA2-induced edema in Swiss mouse at 50 ug, id; type: functional, organism-based

Structure (SMILES)	Km (Crotalus adamanteus [1])	Vmax (Crotalus adamanteus [1])	Km (Crotalus adamanteus [2])	Vmax (Crotalus adamanteus [2])	Ki [3]	Ki [4]	Activity (Crotalus adamanteus [5])
CC(=O)c1c(O)cc(O)cc1O [2,4,6-TRIHYDROXYACETOPHENONE]	15.1 mM	18 nmol/min	28.2 mM	18.3 nmol/min	8.9 nM	8.74 nM	Active
CC(=O)c1c(O)cccc1O	4.25 mM	18.2 nmol/min	7.78 mM	18 nmol/min	30.1 nM	31.2 nM	
CC(=O)c1ccc(O)cc1O	4.03 mM	18.1 nmol/min	7.57 mM	18.2 nmol/min	33.3 nM	32.1 nM	
Oc1cccc(O)c1 [RESORCINOL]	12.6 mM	18.1 nmol/min	24.8 mM	18 nmol/min	8.83 nM	8.72 nM	Active
Oc1cc(O)cc(O)c1 [PHLOROGLUCINOL]	12.1 mM	18.1 nmol/min	23.2 mM	18 nmol/min	8.77 nM	8.86 nM	Active
